The source made the active and inactive calls. The rule behind the calls is not given here.
What was measured:
Candida albicans [1] = assay: Antifungal activity against fluconazole-resistant Candida albicans isolate 2 assessed as growth inhibition after 48 hrs by alamar blue fluorescence assay in presence of 8 ug/ml fluconazole; type: functional, organism-based; details: isolate 2, 48 h
Candida albicans [2] = assay: Antifungal activity against fluconazole-resistant Candida albicans isolate 8 assessed as growth inhibition after 48 hrs by alamar blue fluorescence assay in presence of 8 ug/ml fluconazole; type: functional, organism-based; details: isolate 8, 48 h
NIH3T3 [3] = assay: Cytotoxicity against mouse 3T3 cells; type: cell-based
NIH3T3 [4] = assay: Cytotoxicity against mouse 3T3 cells at 0.2 to 26 uM; type: cell-based; details: nih3t3, 26 µM
Candida albicans [5] = assay: Antifungal activity against Candida albicans assessed as growth inhibition after 48 hrs by alamar blue fluorescence assay; type: functional, organism-based
Candida albicans [6] = assay: Antifungal activity against fluconazole-sensitive Candida albicans SC5314 assessed as growth inhibition at 7.5 ug/ml after 24 hrs by alamar blue fluorescence assay; type: functional, organism-based
Candida albicans [7] = assay: Antifungal activity against fluconazole-sensitive Candida albicans SC5314 assessed as growth inhibition at 7.5 ug/ml after 24 hrs by alamar blue fluorescence assay in presence of fluconazole; type: functional; details: SC5314, 24 h, read-out: GI
Candida albicans [8] = assay: Antifungal activity against fluconazole-sensitive Candida albicans SC5314 assessed as growth inhibition at 1 ug/ml after 24 hrs by alamar blue fluorescence assay; type: functional, organism-based
Candida albicans [9] = assay: Antifungal activity against fluconazole-sensitive Candida albicans SC5314 assessed as growth inhibition at 8 ug/ml after 24 hrs by alamar blue fluorescence assay; type: functional, organism-based

| SMILES | IC50 (Candida albicans [1]) | IC50 (Candida albicans [2]) | also measured |
| --- | --- | --- | --- |
| O=C(Cn1c2ccccc2c2nc3n(c(=O)c21)CCS3)N1CCC(F)(F)CC1 | > 10 µM | > 26 µM | – |
| CC1CCN(CCn2c3ccccc3c3nc4n(c(=O)c32)CCS4)CC1 | > 10 µM | > 26 µM | – |
| CC1CCN(C(=O)Cn2c3ccc(F)cc3c3nc4n(c(=O)c32)CCCS4)CC1 | 2.7 µM | 11.7 µM | – |
| O=C(Cn1c2ccc(F)cc2c2nc3n(c(=O)c21)CCS3)N1CCCCC1 | 0.5 µM | > 26 µM | – |
| CC1CCN(C(=O)Cn2c3ccccc3c3nc4n(c(=O)c32)CCCS4)CC1 | 12.1 µM | 21.3 µM | – |
| O=C(Cn1c2ccc(F)cc2c2nc3n(c(=O)c21)CCS3)N1CCC(F)(F)C1 | 1.1 µM | 1.1 µM | – |
| O=C(Cn1c2ccccc2c2nc3n(c(=O)c21)CCS3)N1CCOCC1 | 4.3 µM | 6.6 µM | – |
| COc1ccc(NC(=O)Cn2c3ccccc3c3nc4n(c(=O)c32)CCS4)cc1 | > 10 µM | > 26 µM | – |
| CC1CCN(C(=O)Cn2c3ccccc3c3nc4n(c(=O)c32)CCS4)CC1 | 3.2 µM | 5.5 µM | IC50 (NIH3T3 [3]): > 26 µM; Activity (NIH3T3 [4]): Non-toxic |
| CC1(O)CN(C(=O)Cn2c3ccccc3c3nc4n(c(=O)c32)CCS4)C1 | > 10 µM | > 26 µM | – |
| O=C(Cn1c2ccc(F)cc2c2nc3n(c(=O)c21)CCS3)N1CCCCCC1 | 2.2 µM | > 26 µM | – |
| O=C(O)Cn1c2ccccc2c2nc3n(c(=O)c21)CCS3 | > 10 µM | > 26 µM | – |
| O=C(Cn1c2ccc(F)cc2c2nc3n(c(=O)c21)CCS3)N1CCCC1 | 0.6 µM | 18.9 µM | – |
| O=C(Cn1c2ccccc2c2nc3n(c(=O)c21)CCS3)N1CCCC1 | 1.1 µM | 1.9 µM | IC50 (NIH3T3 [3]): > 26 µM; IC50 (Candida albicans [5]): > 26 µM; growth inhibition (GI) (Candida albicans [6]): inactive; inhibition of growth at 7.5 µg/mL (Candida albicans [7]): 96% |
| CN1CCN(C(=O)Cn2c3ccccc3c3nc4n(c(=O)c32)CCS4)CC1 | 7.1 µM | 22.5 µM | – |
| COC(=O)Cn1c2ccc(F)cc2c2nc3n(c(=O)c21)CCS3 | 3.5 µM | 6 µM | – |
| O=C(O)Cn1c2ccc(F)cc2c2nc3n(c(=O)c21)CCS3 | > 26 µM | > 26 µM | – |

| SMILES | IC50 (Candida albicans [1]) | IC50 (Candida albicans [2]) | also measured |
| --- | --- | --- | --- |
| O=C(Cn1c2ccccc2c2nc3n(c(=O)c21)CCS3)N1CCC(F)(F)C1 | 5.9 µM | 10.2 µM | – |
| O=C(Cn1c2ccc(F)cc2c2nc3n(c(=O)c21)CCS3)N1CCC(F)(F)CC1 | 0.7 µM | > 26 µM | – |
| CCN(CC)C(=O)Cn1c2ccc(F)cc2c2nc3n(c(=O)c21)CCS3 | 0.5 µM | > 26 µM | – |
| CCN(CC)C(=O)Cn1c2ccccc2c2nc3n(c(=O)c21)CCS3 | 2.3 µM | > 26 µM | – |
| C[C@@H]1[C@H](O)[C@@H](C)/C=C/C=C/C=C/C=C/C=C/C=C/C=C/[C@H](O[C@@H]2O[C@H](C)[C@@H](O)[C@H](N)[C@@H]2O)C[C@@H]2O[C@](O)(C[C@@H](O)C[C@@H](O)[C@H](O)CC[C@@H](O)C[C@@H](O)CC(=O)O[C@H]1C)C[C@H](O)[C@H]2C(=O)O | – | – | growth inhibition (GI) (Candida albicans [8]): Active |
| COc1ccc2c(c1)c1nc3n(c(=O)c1n2CC(=O)N1CCC(C)CC1)CCS3 | > 26 µM | > 26 µM | – |
| O=C(Cn1c2ccccc2c2nc3n(c(=O)c21)CCS3)N1CC=CC1 | 1.8 µM | 3.1 µM | – |
| COC(=O)Cn1c2ccccc2c2nc3n(c(=O)c21)CCS3 | 7.9 µM | 13.3 µM | – |
| Oc1c2nc3ccccc3c-2nc2n1CCS2 | > 10 µM | 15.7 µM | – |
| O=C(Cn1c2ccccc2c2nc3n(c(=O)c21)CCS3)NCCc1ccc(Cl)cc1 | > 10 µM | 23.4 µM | – |
| O=C(Cn1c2ccccc2c2nc3n(c(=O)c21)CCS3)N1CCCCC1 | 1.9 µM | 2.9 µM | – |
| OC(Cn1cncn1)(Cn1cncn1)c1ccc(F)cc1F | – | – | growth inhibition (GI) (Candida albicans [9]): inactive |
| O=C(Cn1c2ccc(F)cc2c2nc3n(c(=O)c21)CCS3)N1CC=CC1 | 0.5 µM | > 26 µM | – |
| O=C(Cn1c2ccccc2c2ccncc21)N1CCCCC1 | > 26 µM | > 26 µM | – |
| COc1ccc2c(c1)c1nc3n(c(=O)c1n2CC(=O)N1CCC(Cc2ccccc2)CC1)CCS3 | > 26 µM | > 26 µM | – |
| Oc1c2nc3ccc(F)cc3c-2nc2n1CCS2 | 3.8 µM | 7.1 µM | – |

Reference: ChEMBL document CHEMBL2016440, “Overcoming fluconazole resistance in Candida albicans clinical isolates with tetracyclic indoles” (Bioorg Med Chem Lett, 2012)
